In patent US11447487B2, “Spiroheptanyl hydantoins as rock inhibitors” (BRISTOL-MYERS SQUIBB COMPANY, priority 2017, dated 2022):

What follows are compounds tested against ROCK2 (Homo sapiens (Human), UniProt O75116) (assay: ROCK assay (Caliper LABCHIP peptide phosphorylation)). Conditions: 5 μM ATP, 1.5 μM peptide substrate.
Format: biochemical
Description: The effectiveness of compounds of the present invention as ROCK inhibitors can be determined in a 30 μL assay containing 20 mM HEPES, pH 7.5, 20 mM MgCl2, 0.015% Brij-35, 4 mM DTT, 5 μM ATP and 1.5 μM peptide substrate (FITC-AHA-AKRRRLSSLRA-OH) (SEQ ID No. 1). Compounds were dissolved in DMSO so that the final concentration of DMSO was <2%, and the reaction was initiated with Rho kinase variants. After incubation, the reaction was terminated by the addition of EDTA and the phosphorylated and non-phosphorylated peptides separated using a LABCHIP® 3000 Reader (Caliper Life Sciences). […] Compounds were tested in dose-response format, and the inhibition of kinase activity was calculated at each concentration of compound. The inhibition data were fit using a curve-fitting program to determine the IC50; i.e., the concentration of compound required to inhibit 50% of kinase activity. Representative Examples were tested in the ROCK assay described above and found having ROCK inhibitory activity. A range of ROCK inhibitory activity (IC50 values) of ≤50 μM (50000 nM) was observed. Table A below lists the ROCK IC50 values measured for the following examples.

Chain of ROCK2 (O75116 whole entry, species assumed): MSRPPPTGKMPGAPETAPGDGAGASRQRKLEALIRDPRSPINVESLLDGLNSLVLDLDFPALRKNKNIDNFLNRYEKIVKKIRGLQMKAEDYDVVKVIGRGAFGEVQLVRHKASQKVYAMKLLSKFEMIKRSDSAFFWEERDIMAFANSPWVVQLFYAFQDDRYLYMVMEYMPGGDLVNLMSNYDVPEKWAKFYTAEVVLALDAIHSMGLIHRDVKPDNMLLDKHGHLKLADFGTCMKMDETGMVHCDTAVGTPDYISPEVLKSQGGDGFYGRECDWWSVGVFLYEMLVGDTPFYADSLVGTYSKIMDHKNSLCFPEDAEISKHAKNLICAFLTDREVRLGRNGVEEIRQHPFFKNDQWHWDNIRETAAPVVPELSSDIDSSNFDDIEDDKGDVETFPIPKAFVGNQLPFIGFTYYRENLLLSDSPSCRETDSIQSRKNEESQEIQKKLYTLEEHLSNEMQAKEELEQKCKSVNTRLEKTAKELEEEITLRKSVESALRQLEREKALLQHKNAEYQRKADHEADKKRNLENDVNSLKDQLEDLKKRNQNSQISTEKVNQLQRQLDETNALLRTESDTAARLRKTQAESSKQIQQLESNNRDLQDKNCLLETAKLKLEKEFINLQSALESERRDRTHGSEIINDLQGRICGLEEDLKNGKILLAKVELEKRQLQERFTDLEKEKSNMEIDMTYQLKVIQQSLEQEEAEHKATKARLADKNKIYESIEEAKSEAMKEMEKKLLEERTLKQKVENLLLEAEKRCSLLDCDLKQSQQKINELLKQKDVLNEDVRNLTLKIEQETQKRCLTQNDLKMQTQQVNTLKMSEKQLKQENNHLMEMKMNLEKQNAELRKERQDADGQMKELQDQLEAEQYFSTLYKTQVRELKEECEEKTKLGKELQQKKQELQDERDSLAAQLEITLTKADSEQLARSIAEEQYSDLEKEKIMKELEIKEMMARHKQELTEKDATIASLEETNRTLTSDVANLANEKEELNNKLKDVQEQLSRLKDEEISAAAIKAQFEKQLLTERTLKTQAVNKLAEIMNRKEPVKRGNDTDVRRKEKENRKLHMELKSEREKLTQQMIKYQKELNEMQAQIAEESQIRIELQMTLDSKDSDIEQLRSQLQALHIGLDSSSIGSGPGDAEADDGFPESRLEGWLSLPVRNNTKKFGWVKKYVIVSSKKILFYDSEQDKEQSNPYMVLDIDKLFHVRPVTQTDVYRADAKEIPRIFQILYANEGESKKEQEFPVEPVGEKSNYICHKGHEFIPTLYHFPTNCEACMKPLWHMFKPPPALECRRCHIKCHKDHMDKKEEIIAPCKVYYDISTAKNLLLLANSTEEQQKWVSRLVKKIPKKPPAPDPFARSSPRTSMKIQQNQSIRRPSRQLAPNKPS

First: CC(C)CC1NC(=O)N([C@H]2C[C@@]3(C[C@H](Oc4ncccc4C(N)=O)C3)C2)C1=O (stereo partly drawn) [Example 44, 2-{[(αR)-6-[4-(2-methylpropyl)-2,5-dioxoimidazolidin-1-yl]spiro[3.3]-heptan-2-yl]oxy}-pyridine-3-carbox-amide]
Second: CC(C)CCC1NC(=O)N([C@H]2C[C@@]3(C[C@H](Oc4ncccc4C(N)=O)C3)C2)C1=O (stereo partly drawn) [Example 54, 2-{[(αR)-6-[4-(3-methylbutyl)-2,5-dioxoimidazolidin-1-yl]spiro[3.3]-heptan-2-yl]oxy}-pyridine-3-carbox-amide]
The IC50 of the first is 6.4-fold lower: 29 nM for the first, 186 nM for the second.

First: NC(=O)c1cccnc1O[C@H]1C[C@]2(C1)C[C@H](N1C(=O)NC(CC3CCCC3)C1=O)C2 (stereo partly drawn) [Example 45, 2-{[(αR)-6-[4-(cyclopentyl-methyl)-2,5-dioxo-imidazolidin-1-yl]spiro[3.3]-heptan-2-yl]oxy}-pyridine-3-carbox-amide]
Second: NC(=O)c1cccnc1O[C@H]1C[C@]2(C1)C[C@H](N1C(=O)NC(CC3CC(F)(F)C3)C1=O)C2 (stereo partly drawn) [Example 46, 2-{[(αR)-6-{4-[(3,3-difluorocyclo-butyl)methyl]-2,5-dioxoimidazolidin-1-yl}spiro[3.3]-heptan-2-yl]oxy}-pyridine-3-carbox-amide]
The IC50 of the first is 1.6-fold lower: 30 nM for the first, 48 nM for the second.

Compared with `NC(=O)c1cccnc1O[C@H]1C[C@]2(C1)C[C@H](N1C(=O)NC(CCC(F)(F)F)C1=O)C2` (stereo partly drawn) [Example 49, 2-{[(αR)-6-[2,5-dioxo-4-(3,3,3-trifluoropropyl)-imidazolidin-1-yl]-spiro[3.3]heptan-2-yl]oxy}pyridine-3-carboxamide], `CC(CCC1NC(=O)N([C@H]2C[C@@]3(C[C@H](Oc4ncccc4C(N)=O)C3)C2)C1=O)C(F)(F)F` (stereo partly drawn) [Example 71, 2-{[(αR)-6-[2,5-dioxo-4-(4,4,4-trifluoro-3-methyl-butyl)imidazolidin-1-yl]spiro[3.3]-heptan-2-yl]oxy}-pyridine-3-carbox-amide] is 2.8-fold lower in IC50: 99 nM for the first, 36 nM for the second.

`CCC(CC)C1NC(=O)N([C@H]2C[C@@]3(C[C@H](Oc4ncccc4C(N)=O)C3)C2)C1=O` (stereo partly drawn) [Example 51, 2-{[(αR)-6-[2,5-dioxo-4-(pentan-3-yl)imidazolidin-1-yl]spiro[3.3]heptan-2-yl]oxy}pyridine-3-carboxamide] and `CC[C@H](C)[C@H]1CC(=O)N([C@H]2C[C@@]3(C[C@H](Oc4ncccc4C(N)=O)C3)C2)C(=O)N1` (stereo partly drawn) [Example 75, 2-{[(αR)-6-[(4R)-4-[(2S)-butan-2-yl]-2,6-dioxo-1,3-diazinan-1-yl]-spiro[3.3]heptan-2-yl]oxy}pyridine-3-carboxamide] are within 1.5-fold of each other in IC50: 155 nM for the first, 138 nM for the second.

`CC(C)(O)CC1NC(=O)N([C@H]2C[C@@]3(C[C@H](Oc4ncccc4C(N)=O)C3)C2)C1=O` (stereo partly drawn) [Example 58, 2-{[(αR)-6-[4-(2-hydroxy-2-methyl-propyl)-2,5-dioxo-imidazolidin-1-yl]-spiro[3.3]heptan-2-yl]oxy}pyridine-3-carboxamide] and `CC(C)(O)CCC1NC(=O)N([C@H]2C[C@@]3(C[C@H](Oc4ncccc4C(N)=O)C3)C2)C1=O` (stereo partly drawn) [Example 62, 2-{[(αR)-6-[4-(3-hydroxy-3-methyl-butyl)-2,5-dioxo-imidazolidin-1-yl]-spiro[3.3]heptan-2-yl]oxy}pyridine-3-carboxamide] are within 1.5-fold of each other in IC50: 289 nM for the first, 421 nM for the second.

Compared with `NC(=O)c1cccnc1O[C@H]1C[C@]2(C1)C[C@H](N1C(=O)C(=O)N(CC3CCC3)C1=O)C2` (stereo partly drawn) [Example 63, 2-{[(αR)-6-[3-(cyclobutyl-methyl)-2,4,5-tri-oxoimidazolidin-1-yl]spiro[3.3]-heptan-2-yl]oxy}-pyridine-3-carbox-amide], `CC(C)CN1C(=O)C(=O)N([C@H]2C[C@@]3(C[C@H](Oc4ncccc4C(N)=O)C3)C2)C1=O` (stereo partly drawn) [Example 67, 2-{[(αR)-6-[3-(2-methylpropyl)-2,4,5-trioxo-imidazolidin-1-yl]-spiro[3.3]heptan-2-yl]oxy}pyridine-3-carboxamide] is 2.9-fold higher in IC50: 617 nM for the first, 1780 nM for the second.

First: CC(C)CCN1C(=O)C(=O)N([C@H]2C[C@@]3(C[C@H](Oc4ncccc4C(N)=O)C3)C2)C1=O (stereo partly drawn) [Example 65, 2-{[(αR)-6-[3-(3-methylbutyl)-2,4,5-trioxo-imidazolidin-1-yl]spiro[3.3]-heptan-2-yl]oxy}-pyridine-3-carbox-amide]
Second: [H][C@]1(Oc2ncccc2C(N)=O)C[C@]2(C[C@@H](N3C(=O)NCC(CC(C)C)C3=O)C2)C1 (stereo partly drawn) [Example 79]
The IC50 of the first is 7.4-fold higher: 968 nM for the first, 131 nM for the second.

`NC(=O)c1cccnc1O[C@H]1C[C@]2(C1)C[C@H](N1C(=O)NC(CCCS(N)(=O)=O)C1=O)C2` (stereo partly drawn) [Example 66, 2-{[(αR)-6-[2,5-dioxo-4-(3-sulfam-oylpropyl)imidazol-idin-1-yl]spiro-[3.3]heptan-2-yl]-oxy}pyridine-3-carboxamide] and `NC(=O)c1cccnc1O[C@H]1C[C@]2(C1)C[C@H](N1C(=O)NC(Cc3ccncc3)C1=O)C2` (stereo partly drawn) [Example 73, 2-{[(αR)-6-{2,5-dioxo-4-[(pyridin-4-yl)methyl]-imidazolidin-1-yl}-spiro[3.3]heptan-2-yl]oxy}pyridine-3-carboxamide] are within 1.5-fold of each other in IC50: 1550 nM for the first, 2280 nM for the second.

`NC(=O)c1cccnc1O[C@H]1C[C@]2(C1)C[C@H](N1C(=O)NC(CC3CC4CCC3C4)C1=O)C2` (stereo partly drawn) [Example 69, 2-{[(αR)-6-[4-({bicyclo[2.2.1]-heptan-2-yl]}-methyl)-2,5-dioxo-imidazolidin-1-yl]-spiro[3.3]heptan-2-yljoxy}pyridine-3-carboxamide] and `NC(=O)c1cccnc1O[C@H]1C[C@]2(C1)C[C@H](N1C(=O)NC(CC3CC4CCC3CC4)C1=O)C2` (stereo partly drawn) [Example 70, 2-{[(αR)-6-[4-({bicyclo[2.2.2]-octan-2-yl}-methyl)-2,5-dioxo-imidazolidin-1-yl]spiro[3.3]-heptan-2-yl]oxy}-pyridine-3-carbox-amide] are within 1.5-fold of each other in IC50: 16 nM for the first, 20 nM for the second.

`Cc1c(CC2NC(=O)N([C@H]3C[C@@]4(C[C@H](Oc5ncccc5C(N)=O)C4)C3)C2=O)cnn1C` (stereo partly drawn) [Example 72, 2-{[(αR)-6-{4-[(1,5-dimethyl-1H-pyrazol-4-yl)-methyl]-2,5-dioxo-imidazolidin-1-yl}-spiro[3.3]heptan-2-yl]oxy}pyridine-3-carboxamide] and `C=CC[C@@H]1CC(=O)N([C@H]2C[C@@]3(C[C@H](Oc4ncccc4C(N)=O)C3)C2)C(=O)N1` (stereo partly drawn) [Example 78, 2-{[(αR)-6-[(4R)-2,6-dioxo-4-(prop-2-en-1-yl)-1,3-diazinan-1-yl]-spiro[3.3]heptan-2-yl]oxy}pyridine-3-carboxamide] are within 1.5-fold of each other in IC50: 885 nM for the first, 963 nM for the second.

First: [H][C@]1(Oc2ncccc2C(N)=O)C[C@@]2(C[C@H](N3C(=O)C[C@H](CCc4ccccc4)NC3=O)C2)C1 (stereo partly drawn) [Example 74]
Second: NC(=O)c1cccnc1O[C@H]1C[C@]2(C1)C[C@H](N1C(=O)C[C@H](c3cccc(Br)c3)NC1=O)C2 (stereo partly drawn) [Example 77, 2-{[(αR)-6-[(4R)-4-(3-bromophenyl)-2,6-dioxo-1,3-diazinan-1-yl]-spiro[3.3]heptan-2-yl]oxy}pyridine-3-carboxamide]
The IC50 of the first is 8.2-fold lower: 75 nM for the first, 614 nM for the second. The first is the more potent here.

Going from `[H][C@]1(Oc2ncccc2C(N)=O)C[C@]2(C[C@@H](N3C(=O)CN(c4cccc(Cl)c4)C3=O)C2)C1` (stereo partly drawn) [Example 80, 2-(((aR)-6-(3-(3-chlorophenyl)-2,5-dioxoimidazolidin-1-yl)spiro[3.3]heptan-2-yl)oxy)nicotinamide] to `NC(=O)c1cccnc1O[C@H]1C[C@]2(C1)C[C@H](N1C(=O)CN(c3cccc(F)c3)C1=O)C2` (stereo partly drawn) [Example 85, 2-(((αR)-6-(3-(3-fluorophenyl)-2,5-dioxoimidazolidin-1-yl)spiro[3.3]heptan-2-yl)oxy)nicotinamide], the IC50 rises from 2 nM to 6 nM (3-fold).

Going from `NC(=O)c1cccnc1OC1CC2(C1)CC(N1C(=O)CN(c3ccccc3OC(F)F)C1=O)C2` (stereo not drawn) [Example 81, 2-(((αR)-6-(3-(2-(difluoromethoxy)phenyl)-2,5-dioxoimidazolidin-1-yl)spiro[3.3]heptan-2-yl)oxy)nicotinamide] to `NC(=O)c1cccnc1O[C@H]1C[C@]2(C1)C[C@H](N1C(=O)CN(c3cccc(C(F)(F)F)c3)C1=O)C2` (stereo partly drawn) [Example 82, 2-(((αR)-6-(2,5-dioxo-3-(3-(trifluoromethyl)phenyl)imidazolidin-1-yl)spiro[3.3]heptan-2-yl)oxy)nicotinamide], the IC50 rises from 3 nM to 5 nM (1.7-fold).

First: NC(=O)c1cccnc1O[C@H]1C[C@]2(C1)C[C@H](N1C(=O)CN(c3ccc(Oc4ccccc4)cc3)C1=O)C2 (stereo partly drawn) [Example 83, 2-(((αR)-6-(2,5-dioxo-3-(4-phenoxyphenyl)imidazolidin-1-yl)spiro[3.3]heptan-2-yl)oxy)nicotinamide]
Second: NC(=O)c1cccnc1O[C@H]1C[C@]2(C1)C[C@H](N1C(=O)CN(c3ccc(Cc4ccccc4)cc3)C1=O)C2 (stereo partly drawn) [Example 84, 2-(((αR)-6-(3-(4-benzylphenyl)-2,5-dioxoimidazolidin-1-yl)spiro[3.3]heptan-2-yl)oxy)nicotinamide]
The IC50 of the first is 1.9-fold lower: 9 nM for the first, 17 nM for the second. The first is the more potent here.

Compared with `NC(=O)c1cccnc1O[C@H]1C[C@]2(C1)C[C@H](N1C(=O)CN(c3ccc(C(F)(F)F)cc3)C1=O)C2` (stereo partly drawn) [Example 87, 2-(((αR)-6-(2.5-dioxo-3-(4-(trifluoromethyl)phenyl)imidazolidin-1-yl)spiro[3.3]heptan-2-yl)oxy)nicotinamide], `CC(C)(O)COc1cccc(N2CC(=O)N([C@H]3C[C@@]4(C[C@H](Oc5ncccc5C(N)=O)C4)C3)C2=O)c1` (stereo partly drawn) [Example 88, 2-(((αR)-6-(3-(3-(2-hydroxy-2-methylpropoxy)phenyl)-2,5-dioxoimidazolidin-1-yl)spiro[3.3]heptan-2-yl)oxy)nicotinamide] is 11-fold higher in IC50: 5 nM for the first, 55 nM for the second. The first is the more potent here.
